Data as given in patent US10743540B2, “3-amino-1,2,4-triazine derivatives and their use for controlling undesired plant growth” (BAYER CROPSCIENCE AKTIENGESELLSCHAFT, priority 2016, dated 2020).

Legend:
Format in all cases: in vivo
[1] = system: AMARE: Amaranthus retroflexus; test: Post-emergence herbicidal effect; details: application rate 320 g/ha, treated at one-leaf stage, assessed visually after about 3 weeks, 100% = plants have died
In short: (§1)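 Monocot and dicot weeds grown in sandy loam in greenhouse, treated at one-leaf stage 2 to 3 weeks after sowing. Compounds as WP or EC sprayed on green parts in water at 600 to 800 L/ha with 0.2% wetting agent. Visual rating after about 3 weeks vs untreated controls (100% = plants dead, 0% = like control).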

VIOTR: Viola tricolor = test: Post-emergence herbicidal effect; details: application rate 320 g/ha, treated at one-leaf stage, assessed visually after about 3 weeks, 100% = plants have died
In short: as §1

VERPE: Veronica persica [2] = test: Post-emergence herbicidal effect; details: application rate 320 g/ha, treated at one-leaf stage, assessed visually after about 3 weeks, 100% = plants have died
In short: as §1

[3] = system: ECHCG: Echinochloa crus-galli; test: Post-emergence herbicidal effect; details: application rate 320 g/ha, treated at one-leaf stage, assessed visually after about 3 weeks, 100% = plants have died
In short: as §1

STEME: Stellaria media [4] = test: Post-emergence herbicidal effect; details: application rate 320 g/ha, treated at one-leaf stage, assessed visually after about 3 weeks, 100% = plants have died
In short: as §1

[5] = system: ALOMY: Alopecurus myosuroides; test: Post-emergence herbicidal effect; details: application rate 320 g/ha, treated at one-leaf stage, assessed visually after about 3 weeks, 100% = plants have died
In short: as §1

[6] = system: LOLMU: Lolium multiflorum; test: Pre-emergence herbicidal effect; details: application rate 320 g/ha, scored visually after 3 weeks, 100% = plants have died, 0% = like control plants
In short: (§2)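 Weed seeds were sown in sandy loam and covered with soil. Compounds, formulated as WP or EC, were sprayed onto the soil surface as aqueous suspension or emulsion at 600 to 800 L/ha water with 0.2% wetting agent. After 3 weeks in the greenhouse, damage was scored visually against untreated controls (0–100%).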

VERPE: Veronica persica [7] = test: Pre-emergence herbicidal effect; details: application rate 320 g/ha, scored visually after 3 weeks, 100% = plants have died, 0% = like control plants
In short: as §2

[8] = system: ECHCG: Echinochloa crus-galli; test: Pre-emergence herbicidal effect; details: application rate 320 g/ha, scored visually after 3 weeks, 100% = plants have died, 0% = like control plants
In short: as §2

[9] = system: POLCO: Polygonum convolvulus; test: Pre-emergence herbicidal effect; details: application rate 320 g/ha, scored visually after 3 weeks, 100% = plants have died, 0% = like control plants
In short: as §2

STEME: Stellaria media [10] = test: Pre-emergence herbicidal effect; details: application rate 320 g/ha, scored visually after 3 weeks, 100% = plants have died, 0% = like control plants
In short: as §2

SETVI: Setaria viridis = test: Pre-emergence herbicidal effect; details: application rate 320 g/ha, scored visually after 3 weeks, 100% = plants have died, 0% = like control plants
In short: as §2

[11] = system: MATIN: Matricaria inodora; test: Pre-emergence herbicidal effect; details: application rate 320 g/ha, scored visually after 3 weeks, 100% = plants have died, 0% = like control plants
In short: as §2

[12] = system: ALOMY: Alopecurus myosuroides; test: Pre-emergence herbicidal effect; details: application rate 320 g/ha, scored visually after 3 weeks, 100% = plants have died, 0% = like control plants
In short: as §2

[13] = system: ABUTH: Abutilon theophrasti; test: Pre-emergence herbicidal effect; details: application rate 320 g/ha, scored visually after 3 weeks, 100% = plants have died, 0% = like control plants
In short: as §2

| Structure (SMILES) | Herbicidal activity with respect to [%] AMARE [1] [%] | Herbicidal activity with respect to [%] VIOTR (VIOTR: Viola tricolor) [%] | Herbicidal activity with respect to [%] VERPE (VERPE: Veronica persica [2]) [%] | Herbicidal activity with respect to [%] ECHCG [3] [%] | Herbicidal activity with respect to [%] STEME (STEME: Stellaria media [4]) [%] | Herbicidal activity with respect to [%] ALOMY [5] [%] | Herbicidal activity with respect to [%] LOLMU [6] [%] | Herbicidal activity with respect to [%] VERPE (VERPE: Veronica persica [7]) [%] | Herbicidal activity with respect to [%] ECHCG [8] [%] | Herbicidal activity with respect to [%] POLCO [9] [%] | Herbicidal activity with respect to [%] STEME (STEME: Stellaria media [10]) [%] | Herbicidal activity with respect to [%] SETVI (SETVI: Setaria viridis) [%] | Herbicidal activity with respect to [%] MATIN [11] [%] | Herbicidal activity with respect to [%] ALOMY [12] [%] | Herbicidal activity with respect to [%] ABUTH [13] [%] |
| --- | --- | --- | --- | --- | --- | --- | --- | --- | --- | --- | --- | --- | --- | --- | --- |
| Nc1nc(NC2CCOc3ccc(F)cc32)nnc1C(F)(F)F (racemic) [Example 1.49] | 80 | 90 | 100 | 80 | 90 | 80 | 100 | 100 | 100 | 100 | 100 | 100 | 100 | 100 | – |
| CCOC(=O)c1nnc(N[C@H]2c3cc(C)ccc3C[C@@H]2C)nc1N [Example 1.21] | 90 | 80 | 100 | 80 | 100 | 80 | – | 80 | 100 | 100 | – | 100 | 100 | 90 | – |
| Cc1ccc2c(c1)[C@H](Nc1nnc(S(C)(=O)=O)c(N)n1)[C@@H](C)C2 [Example 1.45] | 80 | 90 | 90 | 100 | 90 | – | 100 | 100 | 100 | 100 | 100 | 100 | 100 | 100 | 90 |
| Nc1nc(NC2CCOc3ccccc32)nnc1C(F)(F)F (centres unmarked) [Example 1.47, N^3-(3,4-Dihydro-2H-chromen-4-yl)-6-(trifluoromethyl)-1,2,4-triazine-3,5-diamine] | 100 | 100 | 100 | 100 | 100 | 100 | – | 100 | 100 | 100 | 100 | 100 | 100 | 80 | – |
